Assay results taken from patent US20260042764A1, “COMPOSITIONS AND METHODS FOR INHIBITION OF KRAS” (TheRas, Inc., priority 2022, published 2026).

Key:
[1] = target: T1, Avi-KRAS G12R (1-169) GppNHp/RAF1 RBD-3xFLAG (52-151) (Homo sapiens, UniProt P01116, G12R); experiment: Raf1-KRAS G12R-GppNHP disruption HTRF assay (Biological Example 1); format: binding
T1 construct: Avi-KRAS G12R (1-169)
How it was run: (§1)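 Using HTRF, the loss of KRAS–effector RAF1 complex was quantified in 50 mM Tris pH 7.5 buffer with 100 mM NaCl and 0.1% BSA. The protein step and reagent step ran 1 h each at room temperature. Activity normalized with DMSO taken as 100%.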

SW620 cells (KRAS G12V) = experiment: Cell-based pERK HTRF assay in SW620 cell (Biological Example 4); conditions: pERK HTRF
How it was run: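 Read-out: HTRF pERK signal (excitation 320 nm, emission 615 nm) from lysates of SW620 cells after 4 h compound exposure. Dose range was 9 points, half-log steps from 1 μM, in 0.25% DMSO; antibody incubation ran 4–24 h at room temperature.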

[2] = target: T2, Avi-KRAS WT (1-169) GppNHp/RAF1 RBD-3xFLAG (52-151) (Homo sapiens, UniProt P01116); experiment: Raf1-KRAS WT-GppNHP disruption HTRF assay (Biological Example 1); format: binding
T2 construct: Avi-KRAS WT (1-169)
How it was run: as §1

[3] = target: T3, Avi-KRAS G12D (1-169) GppNHp/RAF1 RBD-3xFLAG (52-151) (Homo sapiens, UniProt P01116, G12D); experiment: Raf1-KRAS G12D-GppNHP disruption HTRF assay (Biological Example 1); format: binding
T3 construct: Avi-KRAS G12D (1-169)
How it was run: as §1

GP2d cells (KRAS G12D) = experiment: Cell-based pERK HTRF assay in GP2d cell (Biological Example 2); conditions: GP2d (KRAS G12D) cells, pERK HTRF
How it was run: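 Treatment with test compounds lasted one hour in DMEM containing 10% FBS, with DMSO held at 0.25%. Dilution series: 9 points, half-log spacing, highest 1 μM or 100 nM. Lysates were incubated 4–24 h at room temperature with antibody mix, then HTRF was read at 320 nm excitation.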

[4] = target: T4, Avi-KRAS G12V (1-169) GppNHp/RAF1 RBD-3xFLAG (52-151) (Homo sapiens, UniProt P01116, G12V); experiment: Raf1-KRAS G12V-GppNHP disruption HTRF assay (Biological Example 1); format: binding
T4 construct: Avi-KRAS G12V (1-169)
How it was run: as §1

[5] = KRAS G12R, GppNHp-loaded, class symbols
[6] = Homo sapiens, SW-620, SW620 (KRAS G12V) cells, class symbols
[7] = KRAS WT, GppNHp-loaded, class symbols
[8] = KRAS G12D, GppNHp-loaded, class symbols
[9] = KRAS G12V, GppNHp-loaded, class symbols
[10] = Homo sapiens, SW-620, SW620 (KRAS G12V) cells

T3 sequence (P01116 1-169 isoform P01116-2 G12D): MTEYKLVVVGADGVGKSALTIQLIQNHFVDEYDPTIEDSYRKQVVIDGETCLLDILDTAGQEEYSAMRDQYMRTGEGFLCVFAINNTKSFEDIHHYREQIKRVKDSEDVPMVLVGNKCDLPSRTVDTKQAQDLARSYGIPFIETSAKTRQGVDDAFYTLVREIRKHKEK
T2 sequence (P01116 1-169 isoform P01116-2): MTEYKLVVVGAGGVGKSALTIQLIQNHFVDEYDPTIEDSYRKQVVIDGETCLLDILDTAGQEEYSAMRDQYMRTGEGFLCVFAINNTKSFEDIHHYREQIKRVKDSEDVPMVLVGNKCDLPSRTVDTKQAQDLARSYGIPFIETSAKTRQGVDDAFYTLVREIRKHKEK
T1 sequence (P01116 1-169 isoform P01116-2 G12R): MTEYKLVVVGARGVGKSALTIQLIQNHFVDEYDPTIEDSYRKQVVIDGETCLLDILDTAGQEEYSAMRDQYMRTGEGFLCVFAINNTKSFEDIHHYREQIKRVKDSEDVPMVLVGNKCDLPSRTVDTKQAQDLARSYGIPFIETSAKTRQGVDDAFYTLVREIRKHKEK
T4 sequence (P01116 1-169 isoform P01116-2 G12V): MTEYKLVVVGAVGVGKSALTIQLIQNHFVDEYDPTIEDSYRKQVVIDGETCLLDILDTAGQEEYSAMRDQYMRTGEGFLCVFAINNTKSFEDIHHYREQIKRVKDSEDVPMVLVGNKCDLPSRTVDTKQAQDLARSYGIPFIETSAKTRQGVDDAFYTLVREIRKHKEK

| IC50 [1, 5] [nM] | IC50 (SW620 cells (KRAS G12V); [6]) [nM] | IC50 [2, 7] [nM] | IC50 [3, 8] [nM] | IC50 (GP2d cells (KRAS G12D); GP2d, class symbols) [nM] | IC50 [4, 9] [nM] | IC50 ([1]; KRAS G12R-GppNHp/RAF1 RBD HTRF) [nM] | IC50 (SW620 cells (KRAS G12V); [10]) [nM] | IC50 ([2]; KRAS WT-GppNHp/RAF1 RBD HTRF) [nM] | IC50 ([3]; KRAS G12D-GppNHp/RAF1 RBD HTRF) [nM] | IC50 (GP2d cells (KRAS G12D); GP2d) [nM] | IC50 ([4]; KRAS G12V-GppNHp/RAF1 RBD HTRF) [nM] | IC50 (SW620 cells (KRAS G12V); SW620 (KRAS G12V) cells) [nM] | IC50 (GP2d cells (KRAS G12D)) [nM] | SMILES |
| --- | --- | --- | --- | --- | --- | --- | --- | --- | --- | --- | --- | --- | --- | --- |
| < 100 | < 100 | 100 to 1000 | < 100 | < 100 | < 100 | – | – | – | – | – | – | – | – | CCC(=O)N1C[C@@H](N(CC)c2nc(OC[C@@]34CCCN3C[C@H](F)C4)nc3c(F)c(-c4ccc(F)c5sc(N)c(C#N)c45)c(C(F)(F)F)cc23)C[C@@H]1COC (atropisomer, axis not shown) [Compound 648] |
| – | – | – | – | – | – | 100 to 1000 | < 100 | 100 to 1000 | < 100 | < 100 | 100 to 1000 | – | – | CC(=O)N1C[C@@H](N(C)c2nc(OC[C@@]34CCCN3C[C@H](F)C4)nc3c(F)c(-c4ccc(F)c5sc(N)c(C#N)c45)c(C(F)(F)F)cc23)C[C@@H]1C [Compound 279] |
| – | – | – | – | – | – | 100 to 1000 | 100 to 1000 | 100 to 1000 | 100 to 1000 | < 100 | 100 to 1000 | – | – | N#Cc1c(N)sc2c(F)ccc(-c3c(C(F)(F)F)cc4c(N5CCn6nc(C(=O)N7CC[C@H](O)C7)cc6C5)nc(OC[C@@]56CCCN5C[C@H](F)C6)nc4c3F)c12 [Compound 500] |
| < 100 | < 100 | < 100 | < 100 | < 100 | < 100 | – | – | – | – | – | – | – | – | CCN(c1nc(OC[C@@]23CCCN2C[C@H](F)C3)nc2c(F)c(-c3ccc(F)c4sc(N)c(C#N)c34)c(C(F)(F)F)cc12)[C@@H]1CC(=O)N(CC(F)F)C1 (atropisomer, axis not shown) [Compound 612] |
| < 100 | < 100 | < 100 | < 100 | < 100 | 100 to 1000 | – | – | – | – | – | – | – | – | CCN(c1nc(OC[C@@]23CCCN2C[C@H](F)C3)nc2c(F)c(-c3ccc(F)c4sc(N)c(C#N)c34)c(C(F)(F)F)cc12)[C@H]1CCN(C(=O)[C@H](C)OC)[C@@H]1C (atropisomer, axis not shown) [Compound 781] |
| – | – | – | – | – | – | 100 to 1000 | < 100 | 100 to 1000 | 100 to 1000 | < 100 | 1000 to 10000 | – | – | C[C@@H]1[C@H](N(C)c2nc(OC[C@]34C[C@@H](F)CN3CC3(CC3)C4)nc3c(F)c(-c4ccc(F)c5sc(N)c(C#N)c45)c(C(F)(F)F)cc23)CCN1C(=O)C1CC1 [Compound 564] |
| < 100 | < 100 | < 100 | < 100 | < 100 | < 100 | – | – | – | – | – | – | – | – | CCN(c1nc(OC[C@@]23CCCN2C[C@H](F)C3)nc2c(F)c(-c3ccc(F)c4sc(N)c(C#N)c34)c(C(F)(F)F)cc12)[C@H]1CCN(C(=O)N2C[C@H]3C[C@@H]2CO3)C1 (atropisomer, axis not shown) [Compound 653] |
| – | – | – | – | – | – | 1000 to 10000 | 100 to 1000 | 100 to 1000 | 100 to 1000 | < 100 | 1000 to 10000 | – | – | CCC(=O)N1CC[C@@H](N(CC)c2nc(OC[C@@]34CCCN3C[C@H](F)C4)nc3c(F)c(-c4ccc(F)c5sc(N)c(C#N)c45)c(Cl)cc23)[C@@H]1C [Compound 417] |
| – | – | – | – | – | – | 100 to 1000 | – | 100 to 1000 | 100 to 1000 | – | 100 to 1000 | 100 to 1000 | < 100 | N#Cc1c(N)sc2c(F)ccc(-c3c(C(F)(F)F)cc4c(N5CCn6nc(C(=O)N7CCC(O)C7)cc6C5)nc(OCC56CCCN5CC(F)C6)nc4c3F)c12 (stereo not drawn) [Compound 513] |
| – | – | – | – | – | – | 1000 to 10000 | 100 to 1000 | 1000 to 10000 | 1000 to 10000 | 100 to 1000 | 1000 to 10000 | – | – | N#Cc1c(N)sc2c(F)ccc(-c3c(C(F)(F)F)cc4c(N5CCc6[nH]ncc6C5)nc(OCC56CCCN5CC(F)C6)nc4c3F)c12 (stereo not drawn) [Compound 449] |
| – | – | – | – | – | – | 1000 to 10000 | 100 to 1000 | 1000 to 10000 | 1000 to 10000 | 100 to 1000 | 1000 to 10000 | – | – | CC[C@@H]1[C@H](N(C)c2nc(OC[C@@]34CCCN3C[C@H](F)C4)nc3c(F)c(-c4ccc(F)c5sc(N)c(C#N)c45)c(C(F)(F)F)cc23)CCN1C(=O)C(C)C [Compound 433] |
